Here are results for 10 molecules from patent publication US7410975B2, “Small molecule toll-like receptor (TLR) antagonists” (Coley Pharmaceutical Group, Inc., priority 2003, dated 2008).

This test addresses T1, human TLR9 (hTLR9) (Homo sapiens, UniProt Q9NR96).
T1 construct: expressed in transfected cells
T1 sequence (Q9NR96 26-1032): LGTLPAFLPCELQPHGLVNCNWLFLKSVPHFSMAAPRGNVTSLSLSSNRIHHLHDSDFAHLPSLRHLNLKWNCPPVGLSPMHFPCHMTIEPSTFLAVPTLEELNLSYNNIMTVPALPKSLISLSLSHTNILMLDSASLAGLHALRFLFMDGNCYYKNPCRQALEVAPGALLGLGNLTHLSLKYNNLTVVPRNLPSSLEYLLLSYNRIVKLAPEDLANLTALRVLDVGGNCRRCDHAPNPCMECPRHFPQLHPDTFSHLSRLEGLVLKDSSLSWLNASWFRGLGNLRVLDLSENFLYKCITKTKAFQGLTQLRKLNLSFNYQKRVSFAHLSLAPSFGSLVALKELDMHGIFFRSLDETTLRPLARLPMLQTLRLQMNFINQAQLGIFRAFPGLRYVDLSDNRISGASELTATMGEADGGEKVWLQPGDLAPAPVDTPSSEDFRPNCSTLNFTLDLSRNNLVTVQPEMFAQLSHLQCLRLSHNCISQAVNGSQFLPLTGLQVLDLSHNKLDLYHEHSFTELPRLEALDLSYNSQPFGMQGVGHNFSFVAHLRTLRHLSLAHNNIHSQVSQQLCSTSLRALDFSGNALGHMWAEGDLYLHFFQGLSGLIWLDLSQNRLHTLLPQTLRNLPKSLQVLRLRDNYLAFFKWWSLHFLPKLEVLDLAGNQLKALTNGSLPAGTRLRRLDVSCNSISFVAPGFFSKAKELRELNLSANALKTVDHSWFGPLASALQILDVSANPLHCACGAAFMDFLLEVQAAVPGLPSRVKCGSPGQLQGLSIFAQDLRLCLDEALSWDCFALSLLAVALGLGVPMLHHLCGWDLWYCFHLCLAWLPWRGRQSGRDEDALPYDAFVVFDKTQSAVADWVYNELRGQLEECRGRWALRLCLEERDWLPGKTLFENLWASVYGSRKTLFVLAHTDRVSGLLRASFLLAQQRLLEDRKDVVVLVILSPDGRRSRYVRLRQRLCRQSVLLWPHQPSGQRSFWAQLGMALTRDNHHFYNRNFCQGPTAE
Nature of the test: Antagonist screen, hTLR9-NFκB-293 cells, 6× NF-κB-luciferase reporter, with EC50 of CpG ODN 2006. It counts as cell-based. Particulars: compound at 0.5, 5, 50 μg/ml; EC50 concentration of CpG ODN 2006; 16 h; NF-κB-luciferase. The gist of the method: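 Luciferase fold induction was compared with the ligand-alone baseline, and antagonism was scored by the lowest concentration giving clear down-regulation.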
(In general: In a reporter assay the amount or activity of a reporter protein is the signal.)
In the case of `O=C1Nc2ccccc2Oc2ccc([N+](=O)[O-])cc21` [compound 1352], the “hTLR9 (inhibitory effect, antagonist score)” value is on record as 11 (compounds for which there was clear down regulation only at 50 μg/ml). As for `CC(=O)c1ccc2c(c1)N(CCCN(C)C)c1ccccc1S2.O=C(O)/C=C\C(=O)O` [compound 576, Acetopromazinemaleate salt], the “hTLR9 (inhibitory effect, antagonist score)” value is 12 (compounds for which there was clear down regulation at 5 μg/ml and 50 μg/ml). As for `COc1ccc2c(c1)N(CC(C)CN(C)C)c1ccccc1S2.O=C(O)/C=C\C(=O)O` (stereo not shown) [compound 797, Methotrimeprazinemaleat salt], the “hTLR9 (inhibitory effect, antagonist score)” value is on record as “— (compounds for which there was no clear down regulation even at 50 μg/ml)”.

On to `CNCCCN1c2ccccc2CCc2ccccc21.Cl` [compound 343, Desipraminehydrochloride], for which the “hTLR9 (inhibitory effect, antagonist score)” value was 12 (compounds for which there was clear down regulation at 5 μg/ml and 50 μg/ml). Next, `Clc1ccccc1C(c1ccccc1)(c1ccccc1)n1ccnc1` [compound 267, Clotrimazole]: “— (compounds for which there was no clear down regulation even at 50 μg/ml)”; `CCCCOC(=O)c1cc([N+](=O)[O-])cc2c1-c1cc(CO)c([NH+]([O-])O)cc1C2=C(C#N)C#N` (stereo not shown) [compound 939]: 11 (compounds for which there was clear down regulation only at 50 μg/ml). The same measure for `CN(C)CC/C=C1/c2ccccc2Sc2ccc(Cl)cc21.Cl` [compound 348, Chlorprothixenehydrochloride]: 12 (compounds for which there was clear down regulation at 5 μg/ml and 50 μg/ml); for `COC(=O)C1=CO[C@@H](C)[C@@H]2CN3CCc4c([nH]c5ccccc45)[C@@H]3C[C@H]12` [compound 593, Tetrahydroalstonine]: 11 (compounds for which there was clear down regulation only at 50 μg/ml). The same measure for `Cc1c2ccncc2c(C)c2c1[nH]c1ccccc12` [compound 614, Ellipticine]: 13 (compounds for which there was clear down regulation at 0.5 μg/ml, 5 μg/ml, and 50 μg/ml); for `COc1ccc2[nH]c3c(c2c1)CCN=C3C` [compound 621, Methoxy-6-harmalan]: 12 (compounds for which there was clear down regulation at 5 μg/ml and 50 μg/ml).
